Data on 27 molecules can be found in ChEMBL document CHEMBL1155214, “Structure-affinity relationships of glutamine mimics incorporated into phosphopeptides targeted to the SH2 domain of signal transducer and activator of transcription 3” (J Med Chem, 2009).

The target in one test is T1, Signal transducer and activator of transcription 3 (Homo sapiens, UniProt P40763). The test can be described thus: Ratio of compound IC50 to 4-(3-((S)-1-((S)-2-((S)-5-amino-1-(benzylamino)-1,5-dioxopentan-2-ylcarbamoyl)pyrrolidin-1-yl)-4-methyl-1-oxopentan-2-ylamino)-3-oxoprop-1-enyl)phenyl dihydrogen phosphate IC50 for Stat3 SH2 domain.
T1 sequence (P40763 whole entry, the tested form may be a part): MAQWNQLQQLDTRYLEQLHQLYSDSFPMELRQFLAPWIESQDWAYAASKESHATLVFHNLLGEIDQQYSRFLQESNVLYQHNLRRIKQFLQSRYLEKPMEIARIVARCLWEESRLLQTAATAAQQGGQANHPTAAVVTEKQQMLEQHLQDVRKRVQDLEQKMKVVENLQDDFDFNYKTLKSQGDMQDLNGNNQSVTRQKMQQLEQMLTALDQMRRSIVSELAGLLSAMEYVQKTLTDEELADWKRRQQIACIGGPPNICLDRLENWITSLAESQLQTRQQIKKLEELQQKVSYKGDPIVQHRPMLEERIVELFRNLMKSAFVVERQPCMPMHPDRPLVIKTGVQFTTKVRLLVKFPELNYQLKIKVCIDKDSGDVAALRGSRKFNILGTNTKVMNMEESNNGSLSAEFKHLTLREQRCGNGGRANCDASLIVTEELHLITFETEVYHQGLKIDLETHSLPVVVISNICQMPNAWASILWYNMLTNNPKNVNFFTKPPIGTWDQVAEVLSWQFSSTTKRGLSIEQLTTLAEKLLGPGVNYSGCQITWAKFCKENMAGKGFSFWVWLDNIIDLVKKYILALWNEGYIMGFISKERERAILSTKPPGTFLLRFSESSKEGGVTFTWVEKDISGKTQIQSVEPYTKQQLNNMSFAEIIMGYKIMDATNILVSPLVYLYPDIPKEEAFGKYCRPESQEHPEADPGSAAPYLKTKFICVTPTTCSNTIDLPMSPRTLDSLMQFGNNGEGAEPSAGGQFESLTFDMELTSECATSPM
With `CC(C)C[C@H](NC(=O)/C=C/c1ccc(OP(=O)(O)O)cc1)C(=O)N1CCC[C@H]1C(=O)N[C@@H](COC(N)=O)C(=O)NCc1ccccc1`, the Ratio IC50 was 3.

On to `CC(C)C[C@H](NC(=O)/C=C/c1ccc(OP(=O)(O)O)cc1)C(=O)N1CCC[C@H]1C(=O)N[C@H](C(=O)NCc1ccccc1)[C@@H](C)OC(N)=O`, for which the Ratio IC50 was found to be 6.

For another test, the target named is T1, Signal transducer and activator of transcription 3. The experiment in a line: Inhibition of Stat3 SH2 domain by fluorescence polarization assay. Background: In fluorescence polarisation assays a small probe gives low polarisation when free and higher when bound to something large.
By IC50 is commonly meant the concentration needed to halve the response being measured. The low end stands for higher potency, the high end for lower potency. The molecule `CC(C)C[C@H](NC(=O)/C=C/c1ccc(OP(=O)(O)O)cc1)C(=O)N1CCC[C@H]1C(=O)N[C@@H](CCC(N)=O)Cc1ccc(O)cc1` showed an IC50 of 848 nM. Same read-out and setting: the value for `CC(C)C[C@H](NC(=O)/C=C/c1ccc(OP(=O)(O)O)cc1)C(=O)N1C[C@H]2C[C@H]2[C@H]1C(=O)N[C@H](C)CCC(N)=O` was 175 nM; that for `CC(C)C[C@H](NC(=O)/C=C/c1ccc(OP(=O)(O)O)cc1)C(=O)N1C[C@H]2C[C@H]2[C@H]1C(=O)NCCCC(N)=O` was 303 nM. The same measure, in the same setting: the figure for `CC(C)C[C@H](CCC(N)=O)NC(=O)[C@@H]1CCCN1C(=O)[C@H](CC(C)C)NC(=O)/C=C/c1ccc(OP(=O)(O)O)cc1` is 4900 nM. Molecule `CC(C)C[C@H](NC(=O)/C=C/c1ccc(OP(=O)(O)O)cc1)C(=O)N1C[C@H]2C[C@H]2[C@H]1C(=O)NCCOCc1ccccc1` came in with a concentration for half-maximal inhibition (IC50) of 69 nM. In turn, `CC(C)C[C@H](NC(=O)/C=C/c1ccc(OP(=O)(O)O)cc1)C(=O)N1CCC[C@H]1C(=O)NCCOC(N)=O` showed an IC50 of 360 nM. The same measure, in the same setting: the figure for `CC(C)C[C@H](NC(=O)/C=C/c1ccc(OP(=O)(O)O)cc1)C(=O)N1CCC[C@H]1C(=O)N[C@@H](CCC(N)=O)CN1CCCCC1` is 1210 nM; for `CC(C)C[C@H](NC(=O)/C=C/c1ccc(OP(=O)(O)O)cc1)C(=O)N1C[C@H]2C[C@H]2[C@H]1C(=O)N[C@@H](CCC(N)=O)C(=O)NCc1ccccc1` it is 68 nM. Same read-out and setting: the figure for `CC(C)C[C@H](NC(=O)/C=C/c1ccc(OP(=O)(O)O)cc1)C(=O)N1CCC[C@H]1C(=O)N[C@@H](CCC(N)=O)CN(Cc1ccccc1)Cc1ccccc1` is 1080 nM; for `CCCC[C@H](CCC(N)=O)NC(=O)[C@@H]1CCCN1C(=O)[C@H](CC(C)C)NC(=O)/C=C/c1ccc(OP(=O)(O)O)cc1` it is 1350 nM.

`CC(C)C[C@H](NC(=O)/C=C/c1ccc(OP(=O)(O)O)cc1)C(=O)N1CCC[C@H]1C(=O)N[C@@H](CCC(N)=O)COC(N)=O` yielded an IC50 of 615 nM. On the same count and under the same terms, the figure for `CC(C)C[C@H](NC(=O)/C=C/c1ccc(OP(=O)(O)O)cc1)C(=O)N1CCC[C@H]1C(=O)N[C@@H](CCC(N)=O)C(C)C` is 1880 nM; for `CC(C)C[C@H](NC(=O)/C=C/c1ccc(OP(=O)(O)O)cc1)C(=O)N1CCC[C@H]1C(=O)N[C@H](CN)CCC(N)=O` it is 1240 nM.

`CC(C)C[C@H](NC(=O)/C=C/c1ccc(OP(=O)(O)O)cc1)C(=O)N1CCC[C@H]1C(=O)N[C@H](COCc1ccccc1)COC(N)=O` yielded an IC50 of 454 nM. The same measure, in the same setting: the value for `CC(C)C[C@H](NC(=O)/C=C/c1ccc(OP(=O)(O)O)cc1)C(=O)N1CCC[C@H]1C(=O)N[C@@H](CCC(N)=O)CN1CCOCC1` was 1530 nM. `CC(=O)NC[C@H](CCC(N)=O)NC(=O)[C@@H]1CCCN1C(=O)[C@H](CC(C)C)NC(=O)/C=C/c1ccc(OP(=O)(O)O)cc1`: the IC50 is 589 nM. With `CC(C)C[C@H](NC(=O)/C=C/c1ccc(OP(=O)(O)O)cc1)C(=O)N1C[C@H]2C[C@H]2[C@H]1C(=O)N[C@@H](CCC(N)=O)COCc1ccccc1`, half-maximal inhibition (IC50) was put at 94 nM. The same measure, in the same setting: the figure for `CC(C)C[C@H](NC(=O)/C=C/c1ccc(OP(=O)(O)O)cc1)C(=O)N1CCC[C@H]1C(=O)N[C@H](C)COC(N)=O` is 797 nM. Turning to `CC(C)C[C@H](NC(=O)/C=C/c1ccc(OP(=O)(O)O)cc1)C(=O)N1CCC[C@H]1C(=O)N[C@@H](CCC(N)=O)CN1CCN(C)CC1`, the IC50 stood at 1310 nM. Regarding `CC(C)C[C@H](NC(=O)/C=C/c1ccc(OP(=O)(O)O)cc1)C(=O)N1CCC[C@H]1C(=O)NCCNC(N)=O`, the midpoint of inhibition, the IC50, lay at 131 nM. On the same count and under the same terms, the figure for `CC(C)C[C@H](NC(=O)/C=C/c1ccc(OP(=O)(O)O)cc1)C(=O)N1CCC[C@H]1C(=O)N[C@H](C)CNC(N)=O` is 1350 nM. Same read-out and setting: the figure for `CC(C)C[C@H](NC(=O)/C=C/c1ccc(OP(=O)(O)O)cc1)C(=O)N1C[C@H]2C[C@H]2[C@H]1C(=O)N[C@@H](CCC(N)=O)[C@@H](C)O` is 437 nM; for `CC(C)C[C@H](NC(=O)/C=C/c1ccc(OP(=O)(O)O)cc1)C(=O)N1C[C@H]2C[C@H]2[C@H]1C(=O)N[C@@H](CCC(N)=O)C(C)C` it is 511 nM. Still for that read-out and setting: the value for `CC(C)C[C@H](CCC(N)=O)NC(=O)[C@@H]1[C@@H]2C[C@@H]2CN1C(=O)[C@H](CC(C)C)NC(=O)/C=C/c1ccc(OP(=O)(O)O)cc1` was 1630 nM; that for `CC(C)C[C@H](NC(=O)/C=C/c1ccc(OP(=O)(O)O)cc1)C(=O)N1C[C@H]2C[C@H]2[C@H]1C(=O)N[C@@H](CCC(N)=O)[C@@H](C)OCc1ccccc1` (mixture of isomers) was 69 nM.
